Laboratory results published in PMC8635623, “A click chemistry approach to pleuromutilin derivatives, evaluation of anti-MRSA activity and elucidation of binding mode by surface plasmon resonance and molecular docking” (Journal of Enzyme Inhibition and Medicinal Chemistry, 2021).
Converted amounts (≈) assume the structure as drawn.

What was measured:
S. aureus AD3 = experiment: MIC/MBC by broth micro dilution; type: cell-based; details: Staphylococcus aureus, S. aureus AD3 (clinical strain); for MIC: 37 °C, 24 h; for MBC: lowest concentration reducing viable counts by 99.9%
Experimental: (§1) All the synthesised 1,2,3-triazole linked pleuromutilin analogues were screened for in vitro antibacterial activities against methicillin-resistant S. aureus (ATCC 43300), S. aureus (ATCC 29213), and two clinical strains of S. aureus (AD3 and 144, isolated from Guangdong Province, China). The MICs and MBCs of the synthesised pleuromutilin derivatives along with pleuromutilin and tiamulin used as the reference antibacterial drugs, were determined by the broth micro dilution methods according to the Clinical and Laboratory Standards Institute (CLSI)[18].
(§2) The MIC of these novel pleuromutilin derivatives against methicillin-resistant S. aureus (ATCC 43300), S. aureus (ATCC 29213), S. aureus (AD3) and S. aureus (144) were determined by using pleuromutilin and tiamulin as positive control. MIC values were determined by the broth micro dilution methods in accordance with the Clinical and Laboratory Standards Institute (2012). Stock solutions of these compounds were dissolved in methanol to make a stock solution with a concentration of 1280 µg/mL. The working solutions (640 µg/mL) were obtained by diluting stock solutions in sterile Mueller-Hinton (MH) broth. The bacterial solution and solutions of these compounds with a final concentration of 0.016–32 µg/mL were distributed into 96-well plates, with a total volume of 200 µL. Three parallel experiments for each compound concentration. The plates were incubated at 37 °C for 24 h.
(§3) MBC values were determined according to CLSI (2003) and previously report with slightly modification[18]^,[28]^,[31]. After obtaining the MIC results, the 96-well plates were incubated at 37 °C for 24 h. 100 µL of the bacterial solution from the wells with no visible growth was inoculated on MH agar plates. The MH agar plates were incubated at 37 °C for colony count. The MBC was determined as the lowest concentration of compound, which reduces the viable counts for 99.9%.

S. aureus 144 = experiment: MIC/MBC by broth micro dilution; type: cell-based; details: Staphylococcus aureus, S. aureus 144 (clinical strain); for MIC: 37 °C, 24 h; for MBC: lowest concentration reducing viable counts by 99.9%
Experimental: as §1, §2, §3

S. aureus ATCC 29213 = experiment: MIC/MBC by broth micro dilution; type: cell-based; details: Staphylococcus aureus; for MIC: ATCC29213, 37 °C, 24 h; for MBC: ATCC29213, lowest concentration reducing viable counts by 99.9%
Experimental: as §1, §2, §3

MRSA ATCC 43300 = experiment: MIC/MBC by broth micro dilution; type: cell-based, methicillin-resistant S. aureus; details: Staphylococcus aureus; for MIC: 37 °C, 24 h, read-out: MIC; for MBC: lowest concentration reducing viable counts by 99.9%
Experimental: as §1, §2, §3

50S ribosome = experiment: SPR binding studies; set-up: species or system S. aureus; details: 4 °C; for Kd: PBST pH 7.4, KD = Kd/Ka, read-out: KD (equilibrium dissociation constant); for Ka (association rate constant) / Kd (dissociation rate constant): PBST pH 7.4, compound immobilised, 50S ribosome 200-3200 nM
Experimental: In order to gain some insight into the binding mode of the potent inhibitors, SPR experiments were performed. […] The response unit (RU) of surface resonance was compared to determine the different binding affinities between each compound and the 50S ribosome. The association rate constants (Ka) and dissociation rate constant (Kd) represent the rate of association and dissociation in the binding reaction, respectively. The equilibrium dissociation constant (KD) indicated the degree of dissociation of compounds and the 50S ribosome in the equilibrium state. Their binding curves during the experiment were shown in Figure 3, as well as the concentration gradient curves were shown in Figure SI 27–34.
SPR biosensing experiments were performed at 4 °C using the bScreen LB 991 Label-free Microarray System (Berthold Technologies, Germany) and the photo-cross-linker sensor chip. The BIODOT™ AD-1520 Array Printer (BIODOT Inc., USA) was used for printing samples and control on the chip surface. A UV Spectroirradiator 1020 (Amersham Life Science, USA) was used for the photo-cross-linking reaction quickly after the array print.
As described in the reference[32–34] with minor modifications, the ribosome of S. aureus were extracted and purified to obtain 50S ribosome. MRSA (ATCC 43300) was incubated overnight at 37 °C. The bacteria solution was inoculated into a new culture solution, and cells were collected at an OD600 = 1.5. The bacterial culture was centrifuged 3 times at 3,500 rpm using a TX-400 rotor at 4 °C for 30 min, and then the supernatant was discarded. Cells were washed twice with 10 mM Tris-HCl (pH = 7.5), and suspend the precipitate with buffer A (20 mM HEPES-HCl pH = 7.5, 100 mM NH4Cl, 21 mM Mg(OAc)2, 1 mM EDTA, 1 mM DTT). Cells were lysed by repeated (>3×) snap-freezing and thawing, then ultrasonic disintegration was performed. To remove cell debris, the crushed product was centrifuged at 20,000 rpm for 90 min at 4 °C.The lysate layered on 15 ml of a sucrose cushion (10 mM HEPES-HCl pH = 7.5, 500 mM KCl, 25 mM Mg(OAc)2, 1.1 M sucrose, 0.5 mM EDTA, 1 mM DTT) and centrifuged in the ultracentrifuge(Optima^TM TL 100) at 45,000 rpm using a type70Ti rotor at 4 °C for 15 h to obtain ribosomal particles. Pellet was resuspended in 3 ml of buffer E (10 mM HEPES-HCl pH = 7.5, 100 mM KCl, 1 mM Mg(OAc)2, 0.5 mM EDTA, 1 mM DTT), then layered on 9 ml of 7–30% sucrose gradient and ultracentrifuged at 17,100 rpm using a typeSW40Ti rotor at 4 °C for 15 h. The gradient was analysed on the AKTA explorer system. The fractions corresponding to 50S ribosome were collected and PEG 20000 was added to a final concentration of 4.5% w/v. Ribosomes were pelleted by centrifugation at 20,000 rpm for 12 min, the pellet was gently dissolved in 200 µL of storage buffer (10 mM HEPES-HCl pH = 7.5, 15 mM KCl, 60 mM NH4Cl, 10 mM Mg(OAc)2, 1 mM DTT) and then flash-frozen for storage at −80 °C.
Dilute these compounds to a concentration of 10 mM with DMSO as the stationary phase printing working solution. After that, the printing working solution was printed on the sensor chip by the array printer, and each sample was printed four times repeatedly. Four groups of positive control dots (12 rapamycin dots, 3 in each corner) were printed on the four corners of the sensor chip respectively. The sample dots were dried in vacuum, and the sensor chip was quickly transferred to the UV spectroirradiator for a photo-cross-linking reaction. Subsequently, the sensor chip was washed with DMF, methanol, and water for 15 min in turn, followed by blowing dry under nitrogen, and then assembled with Flowcell Cover.
The binding studies were performed with PBST running buffer (pH = 7.4, 0.1% Tween 20) at a constant flow rate of 0.5 µL/s in instrument. 50S Ribosome was diluted separately with PBST running buffer to 200 nM, 400 nM, 800 nM, 1600 nM and 3200 nM and injected consecutively for 600 s at associating stage, followed by running buffer for 360 s at each dissociating stage. […]

| Compound | MIC (S. aureus AD3) | MIC (S. aureus 144) | MIC (S. aureus ATCC 29213) | MIC (MRSA ATCC 43300) | Kd (50S ribosome) | Ka (association rate constant) (50S ribosome) | Kd (dissociation rate constant) (50S ribosome) | MBC (S. aureus AD3) | MBC (S. aureus 144) | MBC (S. aureus ATCC 29213) | MBC (MRSA ATCC 43300) |
| --- | --- | --- | --- | --- | --- | --- | --- | --- | --- | --- | --- |
| C=C[C@]1(C)C[C@@H](OC(=O)Cn2cc(CN3CCN(c4cccc(C)c4)CC3)nn2)[C@]2(C)[C@H](C)CC[C@]3(CCC(=O)[C@H]32)[C@@H](C)[C@@H]1O [Compound 51, 22-(2-(4-(4-(m-Tolyl)-piperazin-1-yl)-methyl)-1H-1,2,3-triazol-1-yl)-22-deoxy pleuromutilin] | 2 µg/mL (≈ 3.24 µM) | 4 µg/mL (≈ 6.47 µM) | 2 µg/mL (≈ 3.24 µM) | 1 µg/mL (≈ 1.62 µM) | 8.66 µM | 3800 M⁻¹ s⁻¹ | 0.0329 s⁻¹ | 4 µg/mL (≈ 6.47 µM) | 8 µg/mL (≈ 12.9 µM) | 4 µg/mL (≈ 6.47 µM) | 2 µg/mL (≈ 3.24 µM) |
| C=C[C@]1(C)C[C@@H](OC(=O)Cn2cc(CN3CCN(c4ccccc4F)CC3)nn2)[C@]2(C)[C@H](C)CC[C@]3(CCC(=O)[C@H]32)[C@@H](C)[C@@H]1O [Compound 53, 22-(2-(4-(4-(2-Fluorophenyl)-piperazin-1-yl)-methyl)-1H-1,2,3-triazol-1-yl)-22-deoxy pleuromutilin] | 4 µg/mL (≈ 6.43 µM) | 8 µg/mL (≈ 12.9 µM) | 4 µg/mL (≈ 6.43 µM) | 2 µg/mL (≈ 3.22 µM) | 51 µM | – | 0.00403 s⁻¹ | 8 µg/mL (≈ 12.9 µM) | 8 µg/mL (≈ 12.9 µM) | 8 µg/mL (≈ 12.9 µM) | 4 µg/mL (≈ 6.43 µM) |
| C=C[C@]1(C)C[C@@H](OC(=O)Cn2cc(CN3CCN(c4cccc([N+](=O)[O-])c4)CC3)nn2)[C@]2(C)[C@H](C)CC[C@]3(CCC(=O)[C@H]32)[C@@H](C)[C@@H]1O [Compound 63, 22-(2-(4-(4-(3-Nitrophenyl)-piperazin-1-yl)-methyl)-1H-1,2,3-triazol-1-yl)-22-deoxy pleuromutilin] | 2 µg/mL (≈ 3.08 µM) | 4 µg/mL (≈ 6.17 µM) | 4 µg/mL (≈ 6.17 µM) | 2 µg/mL (≈ 3.08 µM) | 3.48 µM | 992 M⁻¹ s⁻¹ | 0.00345 s⁻¹ | 4 µg/mL (≈ 6.17 µM) | 16 µg/mL (≈ 24.7 µM) | 8 µg/mL (≈ 12.3 µM) | 2 µg/mL (≈ 3.08 µM) |
| C=CC1(C)CC(OC(=O)Cn2cc(CN3CCC(O)CC3)nn2)C2(C)C(C)CCC3(CCC(=O)C32)C(C)C1O (stereo not drawn) [Compound 83, 22-(2-(4-(4-Hydroxypiperidin-1-yl)methyl)-1H-1,2,3-triazol-1-yl)-22-deoxy pleuromutilin] | 16 µg/mL (≈ 29.5 µM) | 32 µg/mL (≈ 59 µM) | 16 µg/mL (≈ 29.5 µM) | 8 µg/mL (≈ 14.7 µM) | – | – | – | 32 µg/mL (≈ 59 µM) | 32 µg/mL (≈ 59 µM) | 32 µg/mL (≈ 59 µM) | 16 µg/mL (≈ 29.5 µM) |
| C=CC1(C)CC(OC(=O)Cn2cc(CN3CCCC(CO)C3)nn2)C2(C)C(C)CCC3(CCC(=O)C32)C(C)C1O (stereo not drawn) [Compound 84, 22-(2-(4-(3-(Hydroxymethyl)piperidin-1-yl)methyl)-1H-1,2,3-triazol-1-yl)-22-deoxy pleuromutilin] | 16 µg/mL (≈ 28.7 µM) | 32 µg/mL (≈ 57.5 µM) | 16 µg/mL (≈ 28.7 µM) | 8 µg/mL (≈ 14.4 µM) | – | – | – | 32 µg/mL (≈ 57.5 µM) | 32 µg/mL (≈ 57.5 µM) | 32 µg/mL (≈ 57.5 µM) | 16 µg/mL (≈ 28.7 µM) |
| C=CC1(C)CC(OC(=O)Cn2cc(CN3CCC(CCO)CC3)nn2)C2(C)C(C)CCC3(CCC(=O)C32)C(C)C1O (stereo not drawn) [Compound 85, 22-(2-(4-(4-(2-Hydroxyethyl)piperidin-1-yl)methyl)-1H-1,2,3-triazol-1-yl)-22-deoxy pleuromutilin] | 16 µg/mL (≈ 28 µM) | 16 µg/mL (≈ 28 µM) | 16 µg/mL (≈ 28 µM) | 8 µg/mL (≈ 14 µM) | – | – | – | 32 µg/mL (≈ 56.1 µM) | 32 µg/mL (≈ 56.1 µM) | 32 µg/mL (≈ 56.1 µM) | 8 µg/mL (≈ 14 µM) |

Further lines, with some results ahead:

| MIC (S. aureus AD3) | MIC (S. aureus 144) | MIC (S. aureus ATCC 29213) | MIC (MRSA ATCC 43300) | Kd (50S ribosome) | Ka (association rate constant) (50S ribosome) | Kd (dissociation rate constant) (50S ribosome) | Compound | MBC (S. aureus AD3) | MBC (S. aureus 144) | MBC (S. aureus ATCC 29213) | MBC (MRSA ATCC 43300) |
| --- | --- | --- | --- | --- | --- | --- | --- | --- | --- | --- | --- |
| 2 µg/mL (≈ 5.28 µM) | 2 µg/mL (≈ 5.28 µM) | 4 µg/mL (≈ 10.6 µM) | 2 µg/mL (≈ 5.28 µM) | – | – | – | C=C[C@]1(C)C[C@@H](OC(=O)CO)[C@]2(C)[C@H](C)CC[C@]3(CCC(=O)[C@H]32)[C@@H](C)[C@@H]1O [Pleuromutilin, pleuromutilin] | 4 µg/mL (≈ 10.6 µM) | 4 µg/mL (≈ 10.6 µM) | 8 µg/mL (≈ 21.1 µM) | 4 µg/mL (≈ 10.6 µM) |
| 1 µg/mL (≈ 2.03 µM) | 1 µg/mL (≈ 2.03 µM) | 0.5 µg/mL (≈ 1.01 µM) | 0.5 µg/mL (≈ 1.01 µM) | 0.0363 µM | 122 M⁻¹ s⁻¹ | 4.44e-06 s⁻¹ | C=C[C@]1(C)C[C@@H](OC(=O)CSCCN(CC)CC)[C@]2(C)[C@H](C)CC[C@]3(CCC(=O)[C@H]32)[C@@H](C)[C@@H]1O [Tiamulin, tiamulin, reference compound] | 2 µg/mL (≈ 4.05 µM) | 2 µg/mL (≈ 4.05 µM) | 1 µg/mL (≈ 2.03 µM) | 1 µg/mL (≈ 2.03 µM) |
